Literature values as cited in US20250000872A1, “FORMULATIONS AND DOSING REGIMENS FOR RIP1 KINASE INHIBITORS FOR TREATING AUTOIMMUNE AND INFLAMMATORY DISEASES” (Eli Lilly and Company, priority 2023, published 2025).

What was measured:
[1] = system: patients with mild-to-moderate active plaque-type psoriasis; details: 60 mg orally b.i.d. and 60 mg orally t.i.d.; cited from earlier work
[2] = modified release formulations, fasted state; not maintained with standard or high-fat meal; cited from earlier work
[3] = system: patients with moderate to severe RA; details: 60 mg orally b.i.d. and t.i.d. for up to 84 days; cited from earlier work
UC = details: 60 mg orally t.i.d. for up to 84 days; cited from earlier work

## CN1C(=O)[C@@H](NC(=O)c2nnc(Cc3ccccc3)[nH]2)COc2ccccc21 [GSK2982772, 5-Benzyl-N-[(3S)-5-methyl-4-oxo-2,3-dihydro-1,5-benzoxazepin-3-yl]-1H-1,2,4-triazole-3-carboxamide]
[1]
  clinical improvement over placebo: limited
[2]
  GSK2982772 released over 12 h: 80%
[3]
  difference over placebo in disease activity, radiological progression, or inflammatory markers: No significant difference
UC
  histological disease activity or clinical efficacy compared with placebo: does not lead to differences
